Holding throughout (assay): NCI tumour cell line growth inhibition, 48 h
Experiment [1] concerns SK-OV-3 ovarian.
In experiment [2] the test system is RXF 393 renal.
Experiment [3] concerns EKVX NSCLC.
Experiment [4] has as its system SF-539 CNS.
Experiment [5] relates to MDA-MB-231 breast.
Experiment [6] has as its system SNB-75 CNS.
Experiment [7] relates to UO-31 renal.
Experiment [8] concerns MDA-MB-435.
For experiment [9], the system named is T-47D breast.

Molecules are shown by their SMILES.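 Results reflect a 48-hour exposure of cells in 96-well plates to compound at five concentrations. TGI marks complete inhibition of growth.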

Turning to `O=C(NC1(C(=O)NNc2nnc(-c3ccccc3)c(-c3ccccc3)n2)C(c2ccccc2)C(c2ccccc2)=NN1c1ccccc1)c1ccccc1` (stereo unspecified), the TGI in experiment [1], in experiment [2], in experiment [3], in [4], in experiment [5] and in [6] was more than 100 µM throughout. In addition, the TGI in experiment [7], in experiment [8] and in experiment [9] was more than 100 µM throughout.

For `O=c1c2ccccc2n2nnc3ccc(NCCCNCCNCCCNc4ccc5nnn6c7ccccc7c(=O)c4c56)c1c32`, the TGI in [1] is more than 41.2 µM; in experiment [2], 22.6 µM; in [3] it was 20.3 µM; in experiment [4], 8.46 µM; in [5], 7.37 µM; in experiment [6] it was more than 27.2 µM. Further, the figures for the TGI in experiment [7], in [8] and in experiment [9] were 19.5 µM, more than 50 µM and more than 50 µM, respectively.

For the molecule `COc1ccc(/C=C(\C(=C/c2ccc(OC)cc2)[N+](=O)[O-])[N+](=O)[O-])cc1`, the TGI in experiment [1] stood at 32.4 µM; in experiment [2], 4.33 µM; in experiment [3], 29.8 µM; in experiment [4], 5.71 µM; in [5], 5.56 µM; in experiment [6], 68.6 µM. Further, the figures for the TGI in experiment [7], in [8] and in experiment [9] were 16.7 µM, 12.1 µM and 35.7 µM, respectively.

Turning to `CCOP(=O)(OCC)/C(=C\N1C(=O)CC(=O)NC1=S)C(=O)OC`, the TGI in experiment [1], in experiment [2], in [3], in experiment [4], in experiment [5] and in [6] was more than 100 µM in each case. Further, the TGI in experiment [7], in experiment [8] and in experiment [9] was more than 100 µM in each case.

For `O=C1CCC2(CC1CCSc1ccccc1)OCCO2` (stereo unspecified), the TGI in experiment [1], in experiment [2], in experiment [3], in experiment [4], in experiment [5] and in experiment [6] was more than 100 µM each time. Also, the TGI in [7], in experiment [8] and in experiment [9] was more than 100 µM in each case.

For the molecule `S=c1nc2[nH]c3ccc(Br)cc3c2n[nH]1`, the TGI is more than 100 µM in experiment [1]; more than 100 µM in experiment [2]; more than 100 µM in experiment [3]; more than 100 µM in experiment [4]; more than 100 µM in experiment [5]; 94.9 µM in experiment [6]. The TGI is more than 100 µM in [7], 38.4 µM in experiment [8] and more than 100 µM in experiment [9].

As to `C=CC(C)(C)N[C@@H](C(=O)N1CCC[C@H]1c1nc(-c2nc(C(=O)OCC=C(C)C)c(C)o2)c(C)o1)C(C)C`, the TGI is 86.8 µM in experiment [1]; 91.8 µM in [2]; more than 100 µM in experiment [3]; 38.3 µM in [4]; 51.3 µM in [5]; more than 100 µM in [6]. Moreover, the TGI in experiment [7] is 38.3 µM; in experiment [8] it was 39.8 µM; in [9], 73.4 µM.

Consider `CC1(C)[C@@H](Cn2cnc3c(=O)[nH]c(N)nc32)CC[C@@]1(C)CO`, for which the TGI in experiment [1], in [2], in experiment [3], in experiment [4], in [5] and in experiment [6] was more than 100 µM in each case. Further, the TGI in [7], in [8] and in [9] was more than 100 µM in each case.

In the case of `NC(c1ccccc1)(C(F)(F)F)P1(=O)OC(=O)c2ccccc2O1` (stereo unspecified), the TGI in experiment [1] is 74.4 µM; in experiment [2] it was more than 100 µM; in experiment [3] it was more than 100 µM; in experiment [4], more than 100 µM; in [5], more than 100 µM; in [6], more than 100 µM. Besides, the TGI in experiment [7], in experiment [8] and in [9] was more than 100 µM in each case.

In the case of `CCCn1c(=O)c2ccccc2[n+]2c(-c3ccc([N+](=O)[O-])cc3)csc12`, the TGI in experiment [1] was more than 100 µM; in experiment [2] it was 55.3 µM; in experiment [3] it was more than 100 µM; in experiment [4], 49.2 µM; in experiment [5] it was more than 100 µM; in [6], 94.6 µM. The TGI in [7] was 97.3 µM; in [8] it was more than 100 µM; in experiment [9], more than 100 µM.

Turning to `C=C(CC(=O)Nc1ccc(C(=O)OC)o1)C(=O)OC`, the TGI in [1] is 86.3 µM; in [2], 33.3 µM; in experiment [3], 45 µM; in experiment [4], 36.1 µM; in [5], 58.2 µM; in experiment [6], more than 100 µM. In addition, the TGI in experiment [7] worked out at 39.5 µM; in [8], 59 µM; in experiment [9], 54.8 µM.

As for `O=C1CSC2=NCC3(NN12)c1ccccc1-c1ccccc13`, the TGI in experiment [1], in experiment [2], in experiment [3], in experiment [4], in experiment [5] and in experiment [6] was more than 10 µM throughout. Moreover, the TGI in [7], in [8] and in [9] was more than 10 µM in each case.

Take `CC1(C)CN(c2ccccc2)C(=O)C1OC(=O)[C@@]1(C)C[C@@H]2C=C[C@H]1C2` (stereo partly specified): the TGI was found to be 94.7 µM in experiment [1]; 35.4 µM in experiment [2]; 59.9 µM in [3]; 52.9 µM in experiment [4]; 79.3 µM in [5]; 75 µM in experiment [6]. Also, the TGI in experiment [7] stood at 30.8 µM; in experiment [8], 42 µM; in experiment [9], 73.2 µM.

Take `O=C(Nc1nnc(-c2ccccc2)o1)C(SC(=S)N1CCOCC1)c1ccccc1` (stereo unspecified): the TGI is more than 100 µM in [1]; more than 100 µM in [2]; 55.5 µM in [3]; more than 100 µM in experiment [4]; more than 100 µM in experiment [5]; more than 100 µM in [6]. The TGI in experiment [7], in [8] and in [9] was more than 100 µM throughout.

(Values after PubChem BioAssay (NCI).)
